Data published in patent publication US20040009899A1, “Treating dominant disorders” (priority 2002, published 2004).

Tests used:
[1] = tested on: GAPDH; experiment: Western immunoblot of GAPDH (non-targeted gene) in PNA-treated R6/1 mice; format: in vivo, mouse; conditions: any animal tested
Method: Following the treatment period, mice were anesthetized with ether and sacrificed by cervical dislocation. Whole brains and livers were removed and placed in 0.9% saline. Striatum tissue was dissected from whole brains, and liver tissue was finely minced. The tissues were placed in separate 2 mL microfuge tubes on dry ice and then suspended in 20 volumes of RIPA buffer (50 mM Tris pH 8, 150 mM NaCl, 1 mM EDTA, 1 mM EGTA, 0.5% sodium deoxycholate, 0.1% SDS, 1% TritonX-100, 2 μg/mL leupeptin, 2 μg/mL aprotinin, 1 μg/mL pepstatin, 1 mM phenylmethylsulfonylfluoride) per gram of tissue. Suspended tissues were homogenized by sonication, and the homogenates were clarified by centrifugation at 12,000×g for 20 minutes at 4° C. Following centrifugation, the supernatants were removed and protein concentrations were quantified by Bradford assays using a BSA standard.
Immunoblotting: Supernatants from the tissue homogenates were mixed with 1/6 volume of 6×SDS sample buffer (350 mM Tris pH 6.8, 10% SDS, 30% glycerol, 15% 2-mercaptoethanol, 0.012% bromophenol blue). Equal amounts of protein were directly loaded onto 10% acrylamide/0.05% bisacrylamide gels without heat denaturation. […] Protein bands were detected on film by chemiluminescence. […]

[2] = tested on: endogenous mouse Hdh allele; experiment: Western immunoblot of endogenous mouse htt expression in PNA-treated R6/1 mice; format: in vivo; conditions: any tissue examined (striatum, liver), any tested time point (4 or 6 days)
Method: Cannulation and microsurgery—method 1: B6CBA, R6/1, and R6/2 mice were obtained from The Jackson Laboratory (Bar Harbor, Me.). Mice were anesthetized via intraperitoneal (i.p.) injection with 100 mg/kg of a ketamine/xylazine solution containing 8 mg/mL ketamine and 1 mg/mL xylazine in 0.9% saline. Once anesthetized, each mouse was cannulated. Each anesthetized mouse was placed in a Stoelting Stereotaxic Frame with a mouse adapter (Stoelting Instruments, Wood Dale, Ill.). An incision was made using a scalpel, and the skin and tissue were pulled back with swabs to reveal the skull. The cannulation site was positioned for optimum access to the ventricle, at coordinates AP −0.2 mm, Horiz −1 mm from bregma. A cannula entry port and two bone screw ports were opened in the skull using a Dremel Flex Shaft Drill (Stoelting Instruments) with a 2.1 mm burr for the guide cannula port and a 0.7 mm burr for the bone screws (Fine Science Tools, Foster City, Calif.). Two 4.0 mm long bone screws (0.85 diameter) were placed far enough into the bone screw ports to fasten securely. […]
Following the treatment period, mice were anesthetized with ether and sacrificed by cervical dislocation. […] Following centrifugation, the supernatants were removed and protein concentrations were quantified by Bradford assays using a BSA standard. […]

[3] = tested on: mice; experiment: Toxicity observation (behavior, weight, motor function) during intraventricular PNA treatment; format: in vivo; conditions: 1.0 μL (25 μg/μL) into the ventricle every other day
Method: Animal treatment and tissue preparation: Aliquots of 1.0 μL (25 μg/μL) of a PNA oligomer specific for the expanded human HD allele (HDs) or a scrambled control PNA (HDscr) were administered into the ventricle every other day by injection via the cannula.

## HDscr: scrambled control PNA oligomer, 5′-GCAGCGGCGGTCCT-3′ (SEQ ID NO:4) (all peptide nucleic acid (PNA)) [reference compound]
[1]
  inhibition of non-targeted genes such as GAPDH: No measurable inhibition
[2]
  effect on expression of the endogenous mouse Hdh allele: Neither HDs nor HDscr had any effect
[3]
  toxicity as measured by weight or motor function relative to untreated animals: no effects of toxicity
